# Results reported in patent US20080085884A1, “Melanin Concentrating Hormone Receptor-1 Antagonist Pyridinones” (Pfizer Inc, priority 2006, published 2008).
# pKi: −log10 of the molar value. Structures can show the parent of a compound that is named as a salt.
# Target: T1, human MCHR1 (Homo sapiens, UniProt Q99705)
# T1 construct: host or cells: CHO
# Assay: Cyclic AMP assay (MCHR-1 functional antagonism)
# Assay type: cell-based
# Details: CHO cells stably expressing human MCHR1; cAMP accumulation with 25 uM forskolin and 0.2 nM MCH, 90 min; Ki from IC50 by Cheng-Prusoff; read-out: MCHR-1 functional Ki
# Procedure: CHO cell lines stably expressing the human MCHR1 (Euroscreen, Brussels, Belgium) were maintained in DMEM containing Glutamax (Invitrogen, Carlsbad, Calif.), 10% FBS, 400 ug/ml Geneticin.
# Cyclic AMP assays. CHO cells stably expressing the human MCHR1 receptors were collected and resuspended at a density of 4.0×10^6 cells/ml in F12 (Hams) media and seeded (20,000 cells per well) into 384-well, solid white Greiner assay plates. […] Cells were incubated at 37° C./5% CO2 for 90 minutes and cAMP accumulation subsequently determined by DiscoveRx Hithunter c-AMP II Assay kit (GE Healthcare, Buckinghamshire, UK) in accordance with manufactures instructions. Luminescence was measured on a LEADseaker imaging system (GE Healthcare, Buckinghamshire, UK). IC50 values were calculated from dose-response data fit using an in-house computer graphics and statistics program.
# T1 sequence (Q99705 whole entry): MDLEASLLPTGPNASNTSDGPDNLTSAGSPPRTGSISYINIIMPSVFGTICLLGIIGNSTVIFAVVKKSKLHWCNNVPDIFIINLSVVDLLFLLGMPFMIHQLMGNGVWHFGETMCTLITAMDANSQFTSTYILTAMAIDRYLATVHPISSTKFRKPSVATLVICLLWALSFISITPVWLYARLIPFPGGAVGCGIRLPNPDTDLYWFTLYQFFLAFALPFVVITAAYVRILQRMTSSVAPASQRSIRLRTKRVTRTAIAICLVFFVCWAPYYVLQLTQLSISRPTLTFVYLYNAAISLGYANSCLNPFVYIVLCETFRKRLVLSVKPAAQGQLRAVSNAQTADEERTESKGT
structure (smiles),measurement,value
O=c1cc(OCc2ccc(F)cc2)ccn1-c1ccc(N2CCC[C@@H](O)C2)nc1 [Example 87],pKi,6.72
CC(C)N1C[C@H]2CN(c3ccc(-n4ccc(OCc5ccc(F)cc5)cc4=O)cn3)C[C@H]2C1 [Example 207],pKi,8.19
CCN(C(=O)OC)[C@@H]1CCN(c2ccc(-n3ccc(OCc4ccccc4)cc3=O)cn2)C1 [Example 178],pKi,7.72
"CN(C)C(=O)C1CCN(c2ccc(-n3ccc(OCc4ccccc4)cc3=O)cn2)C1 (single isomer, unassigned) [Example 25b, 1-[4-(Benzyloxy)-2-oxo-2H-1,3′-bipyridin-6′-yl]-N,N-dimethylpyrrolidine-3-carboxamide]",pKi,7.16
CCN(C(=O)OC)[C@H]1CCN(c2ccc(-n3ccc(OCc4ccccc4)cc3=O)cn2)C1 [Example 177],pKi,7.71
CC(C)N1C[C@H]2CN(c3ccc(-n4ccc(OCc5ccccc5)cc4=O)cn3)C[C@H]2C1 [Example 209],pKi,7.97
O=c1cc(OCc2cccc(Cl)c2Cl)ccn1-c1ccc(N2CC[C@@H](O)C2)nc1 [Example 205],pKi,6.30
CCOC(=O)N[C@@H]1CCN(c2ccc(-n3ccc(OCc4ccccc4)cc3=O)cn2)C1 [Example 43],pKi,6.44
CNC1CN(c2ccc(-n3ccc(OCc4ccccc4)cc3=O)cn2)C1 [Example 111],pKi,6.79
COC(=O)N(C)[C@H]1CCN(c2ccc(-n3ccc(OCc4ccccc4)cc3=O)cn2)C1 [Example 181],pKi,7.96
CCC(=O)N1CCN(c2ccc(-n3ccc(OCc4ccc(F)cc4)cc3=O)cn2)CC1 [Example 168],pKi,6.27
N[C@@H]1CCN(c2ccc(-n3ccc(OCc4ccc(Cl)cc4)cc3=O)cn2)C1 [Example 105],pKi,8.20
CCC1CN(c2ccc(-n3ccc(OCc4ccccc4)cc3=O)cn2)CCN1 (centres unmarked) [Example 223],pKi,6.71
CC(C)CC1CN(c2ccc(-n3ccc(OCc4ccccc4)cc3=O)cn2)CCN1 (centres unmarked) [Example 222],pKi,6.17
CC(=O)N[C@H]1CCN(c2ccc(-n3ccc(OCc4ccc(Cl)cc4)cc3=O)cn2)C1 [Example 174],pKi,7.58
O=c1cc(OCc2ccccc2)ccn1-c1ccc(N2CC(N3CCC3)C2)nc1 [Example 79],pKi,6.38
O=c1cc(OCc2ccccc2)ccn1-c1ccc(N2CCC2)nc1 [Example 59],pKi,7.17
O=c1cc(OCc2ccccc2)ccn1-c1ccc(N2CC3CCC(C2)N3)nc1 [Example 69],pKi,6.91
"CN(C)C(=O)C1CCN(c2ccc(-n3ccc(OCc4ccccc4)cc3=O)cn2)C1 (racemic) [Example 25, 1-[4-(Benzyloxy)-2-oxo-2H-1,3′-bipyridin-6′-yl]-N,N-dimethylpyrrolidine-3-carboxamide]",pKi,7.09
"CNC1(C)CCN(c2ccc(-n3ccc(OCc4ccccc4)cc3=O)cn2)C1 (single isomer, unassigned) [Example 18a, 4-(Benzyloxy)-6′-[3-methyl-3-(methylamino)pyrrolidin-1-yl]-2H-1,3′-bipyridin-2-one]",pKi,8.05
O=c1cc(OCc2ccc(F)cc2)ccn1-c1ccc(N2CCC[C@H](O)C2)nc1 [Example 88],pKi,5.94
COC(=O)N1C[C@@H]2CN(c3ccc(-n4ccc(OCc5ccc(F)cc5)cc4=O)cn3)C[C@@H]2C1 [Example 195],pKi,7.50
"O=c1cc(OCc2ccccc2)ccn1-c1ccc(N2CC[C@@H](O)C2)nc1 [Example 11, 4-(Benzyloxy)-6′-[(3R)-3hydroxypyrrolidin-1-yl]-2H-1,3′-bipyridin-2-one]",pKi,7.01
CN(C)[C@H]1CCN(c2ccc(-n3ccc(OCc4ccccc4)cc3=O)cn2)C1 [Example 57],pKi,8.44
CC(=O)N(C)[C@@H]1CCN(c2ccc(-n3ccc(OCc4ccc(Cl)cc4)cc3=O)cn2)C1 [Example 172],pKi,7.96
CCN(C(C)=O)[C@@H]1CCN(c2ccc(-n3ccc(OCc4ccccc4)cc3=O)cn2)C1 [Example 160],pKi,7.57
CCN(C(C)=O)[C@H]1CCN(c2ccc(-n3ccc(OCc4ccccc4)cc3=O)cn2)C1 [Example 161],pKi,7.48
O=c1cc(OCc2cccc(Cl)c2)ccn1-c1ccc(N2CC[C@@H](O)C2)nc1 [Example 144],pKi,7.16
CCOC(=O)N[C@H]1CCN(c2ccc(-n3ccc(OCc4ccccc4)cc3=O)cn2)C1 [Example 176],pKi,7.52
O=c1cc(OCc2ccc(F)cc2)ccn1-c1ccc(N2CC[C@H](O)C2)nc1 [Example 114],pKi,7.32
CC(C)CC1CN(c2ccc(-n3ccc(OCc4ccccc4)cc3=O)cn2)CCN1 (centres unmarked) [Example 71],pKi,6.20
CC(C)C1CN(c2ccc(-n3ccc(OCc4ccccc4)cc3=O)cn2)CCN1 (centres unmarked) [Example 221],pKi,6.90
O=c1cc(OCc2ccccc2Cl)ccn1-c1ccc(N2CC[C@@H](O)C2)nc1 [Example 145],pKi,7.01
CO[C@@H]1CCN(c2ccc(-n3ccc(OCc4ccccc4)cc3=O)cn2)C1 [Example 235],pKi,7.96
O=c1cc(OCc2ccc(Cl)cc2)ccn1-c1ccc(N2C[C@H]3CNC[C@H]3C2)nc1 [Example 107],pKi,8.27
"CN(C(=O)OC(C)(C)C)[C@H]1CCN(c2ccc(-n3ccc(CCc4ccccc4)cc3=O)cn2)C1 [Example 32, tert-Butyl methyl{(3S)-1-[2-oxo-4-(2-phenylethyl)-2H-1,3′-bipyridin-6′-yl]pyrrolidin-3-yl}-carbamate]",pKi,7.74
CN[C@H]1CCN(c2ccc(-n3ccc(OCc4cccc(Cl)c4)cc3=O)cn2)C1 [Example 149],pKi,8.46
O=c1cc(OCc2ccc(Cl)cc2)ccn1-c1ccc(N2C[C@@H](O)[C@@H](O)C2)nc1 [Example 101],pKi,7.59
"CN(C)C1CCN(c2ccc(-n3ccc(OCc4ccccc4)cc3=O)cn2)CC1 [Example 5, 4-(Benzyloxy)-6′-[4-(dimethylamino)piperidin-1-yl]-2H-1,3′-bipyridin-2-one]",pKi,6.95
COC(=O)N1CCN(c2ccc(-n3ccc(OCc4ccc(F)cc4)cc3=O)cn2)CC1 [Example 81],pKi,5.93
"CCN1C[C@@H]2CN(c3ccc(-n4ccc(OCc5ccccc5)cc4=O)cn3)C[C@@H]2C1 [Example 26, 4-(Benzyloxy)-6′-[(3aR,6aS)-5-ethylhexahydropyrrolo[3,4-c]pyrrol-2(1H)-yl]-2H-1,3′-bipyridin-2-one]",pKi,8.18
CN[C@H]1CCN(c2ccc(-n3ccc(OCc4ccc(Cl)c(F)c4)cc3=O)cn2)C1 [Example 152],pKi,8.64
CCCC(=O)N[C@H]1CCN(c2ccc(-n3ccc(OCc4ccccc4)cc3=O)cn2)C1 [Example 169],pKi,7.71
"CC(C)(C)OC(=O)N1C[C@@H]2CN(c3ccc(-n4ccc(OCc5ccccc5)cc4=O)cn3)C[C@@H]2C1 [Example 4, tert-Butyl (3aR,6aS)-5-[4-(benzyloxy)-2-oxo-2H-1,3′-bipyridin-6′-yl]hexahydropyrrolo[3,4-c]pyrrole-2(1H)-carboxylate]",pKi,5.71
"O=c1cc(OCc2ccccc2)ccn1-c1ccc(N2CCCC2)nc1 [Example 34, 4-(benzyloxy)-6′-pyrrolidin-1-yl-2H-1,3′-bipyridin-2-one]",pKi,7.27
COC(=O)N[C@@H]1CCN(c2ccc(-n3ccc(OCc4ccc(F)cc4)cc3=O)cn2)C1 [Example 192],pKi,6.84
CCO[C@H]1CCN(c2ccc(-n3ccc(OCc4ccccc4)cc3=O)cn2)C1 [Example 40],pKi,7.47
"CN[C@@H]1CCN(c2ccc(-n3ccc(OCc4ccccc4)cc3=O)cn2)C1 [Example 15, 4-(benzyloxy)-6′-[(3R)-3-(methylamino)pyrrolidin-1-yl]-2H-1,3′-bipyridin-2-one dihydrochloride]",pKi,8.44
COC1CCN(c2ccc(-n3ccc(OCc4ccccc4)cc3=O)cn2)C1 (centres unmarked) [Example 37],pKi,7.37
CO[C@H]1CCN(c2ccc(-n3ccc(OCc4ccccc4)cc3=O)cn2)C1 [Example 36],pKi,7.12
O=c1cc(OCc2ccccc2)ccn1-c1ccc(N2CCCCC2)nc1 [Example 110],pKi,7.38
"O=c1cc(OCc2ccccc2)ccn1-c1ccc(N2C[C@H]3CNC[C@H]3C2)nc1 [Example 8, 4-(Benzyloxy)-6′-[(3aR,6aS)-hexahydropyrrolo[3,4-c]pyrrol-2(1H)-yl]-2H-1,3′-bipyridin-2-one dihydrochloride]",pKi,8.06
COC(=O)N[C@@H]1CCN(c2ccc(-n3ccc(OCc4ccccc4)cc3=O)cn2)C1 [Example 188],pKi,6.66
CC(=O)N[C@@H]1CCN(c2ccc(-n3ccc(OCc4ccc(Cl)cc4)cc3=O)cn2)C1 [Example 175],pKi,7.23
"CN[C@H]1CCN(c2ccc(-n3ccc(OCc4ccccc4)cc3=O)cn2)C1 [Example 13, 4-(Benzyloxy)-6′-[(3S)-3-(methylamino)pyrrolidin-1-yl]-2H-1,3′-bipyridin-2-one dihydrochloride]",pKi,8.31
CC(=O)N1C[C@@H]2CN(c3ccc(-n4ccc(OCc5ccc(F)cc5)cc4=O)cn3)C[C@@H]2C1 [Example 164],pKi,7.18
CCC(=O)N[C@@H]1CCN(c2ccc(-n3ccc(OCc4ccccc4)cc3=O)cn2)C1 [Example 196],pKi,6.22
NC1CN(c2ccc(-n3ccc(OCc4ccccc4)cc3=O)cn2)C1 [Example 232],pKi,6.62
CCC(=O)N1C[C@@H]2CN(c3ccc(-n4ccc(OCc5ccc(F)cc5)cc4=O)cn3)C[C@@H]2C1 [Example 171],pKi,7.42
COC(=O)N(C)[C@@H]1CCN(c2ccc(-n3ccc(OCc4ccccc4)cc3=O)cn2)C1 [Example 187],pKi,7.62
O=c1cc(OCc2ccc(F)cc2)ccn1-c1ccc(N2CCCC2)nc1 [Example 116],pKi,7.57
O=c1cc(OCc2ccccc2)ccn1-c1ccc(N2CC(N3CCCC3)C2)nc1 [Example 78],pKi,6.81
